PubChem BioAssay AID1996
In brackets after ≈: the same amount, converted by molar mass.

settings: buffer; pH 7.4; 200.0 µM

Row | SMILES | solubility kinetic [µg/mL]
1 | COc1ccccc1NC(=O)Nc1cccnc1 | 34.6 (≈ 142 µM)
2 | CC(=O)c1sc(NC(=O)c2ccc(Cl)cc2)nc1C | 0.5 (≈ 1.7 µM)
3 | O=C(Cc1ccccc1)c1ccccc1C(=O)N1CCCCC1 | > 46.1
4 | Cc1ccc(S(=O)(=O)CCC(=O)Nc2cccc(Cl)c2)cc1 | 23.9 (≈ 70.7 µM)
5 | Cc1ccsc1C(=O)NCCc1nnc2ccccn12 | > 43
6 | CC(C)CNC(=O)[C@H](Cc1ccccc1)NC(=O)c1cccs1 | 9.6 (≈ 29.1 µM)
7 | COC(=O)c1nn(-c2cccc(C(F)(F)F)c2)ccc1=O | > 44.7
8 | CN(C)C(CNC1CC(C)(C)NC(C)(C)C1)c1cccc(F)c1 (stereo unspecified) | 34.7 (≈ 108 µM)
9 | CCC(OCC(O)CN1CCCCC1)c1ccccc1.Cl (stereo unspecified) | > 47.1
10 | CCOC(=O)N1CCC2(CC1)C(C#N)=C(N)OC1=C2C(=O)CCC1 | > 49.7
11 | C=CCNC(=O)C1=NN(c2c(F)c(F)cc(F)c2F)C(=O)CC1 | > 49.4
12 | O=[N+]([O-])c1ccc(Cl)c(S(=O)(=O)n2ccnc2)c1 | > 43.2
13 | O=C(CN1C(=O)c2ccccc2C1=O)Nc1cccc(O)c1 | 37 (≈ 125 µM)
14 | O=C(NCc1ccc2c(c1)OCO2)c1ccc(Br)s1 | 1.9 (≈ 5.58 µM)
15 | COCCNC(=O)[C@@H]1CSC2c3ccccc3C(=O)N21 (stereo partly specified) | > 43.9
16 | Cc1cccc(NC(=O)Nc2c(C)n(C)n(-c3ccccc3)c2=O)c1 | > 50.5
17 | O=C(COC(=O)/C=C/c1cccc([N+](=O)[O-])c1)NCc1ccco1 | 18.5 (≈ 56 µM)
18 | CCOc1ccc2[nH]c3c(NCCC(C)C)ncnc3c2c1 | 0.6 (≈ 2.01 µM)
19 | Cc1ccc(S(=O)(=O)N2CCCCC2)cc1NC(=O)c1ccccc1Cl | 23.2 (≈ 59 µM)
20 | O=C(Nc1ccccc1)N1CCCN(c2nccc(C(F)(F)F)n2)CC1 | 1.7 (≈ 4.65 µM)
21 | O=C(Nc1ccccc1)Nc1ccc(Nc2ccccc2)cc1 | < 0.2
22 | Cc1ccc(C(C)NC(=O)C2CCCC2)c(C)c1 (stereo unspecified) | 34.2 (≈ 139 µM)

Row | SMILES | solubility kinetic [µg/mL]
23 | OC(c1ccccc1)(c1ccccc1)C1CCNCC1 | > 40.1
24 | CCN(CC)C1CC(=O)N(c2cccc(Cl)c2)C1=O (stereo unspecified) | > 42.1
25 | Nc1cc(N)nc(SCCc2ccccc2)n1 | > 36.9
26 | Cc1cc(OCC(=O)NC2CCN(C)CC2)ccc1[N+](=O)[O-] | > 46.1
27 | CC(=O)Nc1ccc(-c2csc(-c3cccnc3)n2)cc1 | 5.9 (≈ 20 µM)
28 | O=C(CN1CCN(c2ccccc2F)CC1)NCc1ccccc1 | 40.8 (≈ 125 µM)
29 | COc1cccc(C2N(Cc3ccccc3)C(=O)C2(F)F)c1OC (stereo unspecified) | 15.2 (≈ 45.6 µM)
30 | Cc1ccc(C(C)NC(=O)Cc2cccs2)c(C)c1 (stereo unspecified) | 34.4 (≈ 126 µM)
31 | O=C(c1c(F)cccc1F)N1CCN=C1SCc1ccccc1 | 18.5 (≈ 55.7 µM)
32 | Nc1nc(-c2c(Cl)cccc2Cl)no1 | 32.7 (≈ 142 µM)
33 | O=C(NC1CC1)c1cc(OCC(F)(F)F)ccc1OCC(F)(F)F | 44.3 (≈ 124 µM)
34 | Cc1nc2ccc(NC(=O)c3ccc(Br)o3)cc2s1 | 5.1 (≈ 15.1 µM)
35 | O=C1CC(NC2CCN(C(=O)c3cccc(F)c3)CC2)C(=O)N1 (stereo unspecified) | > 47.9
36 | CC(=O)c1ccccc1Oc1ncnc(N)c1[N+](=O)[O-] | > 41.1
37 | O=C(COC(=O)CCC(=O)N1CCOCC1)Nc1ccc(Br)cc1Br | > 71.7
38 | CC(=O)Oc1ccc(C(=O)Nc2ccc3c(c2)OCCO3)cc1 | 38.9 (≈ 124 µM)
39 | O=C(Oc1ccc(Cl)cc1)N1CCOCC1 | > 36.3
40 | O=C(Cn1c(=O)oc2ccccc21)Nc1ccc(F)cc1 | 21.8 (≈ 76.2 µM)
41 | COc1ccc(/C=C/C(=O)O)cc1S(=O)(=O)NCc1ccccc1 | 49.6 (≈ 143 µM)
42 | O=C(COC(=O)Cc1ccsc1)Nc1ccc(Cl)cn1 | > 46.6
43 | Cc1ccc(NC(=S)NC2CCSc3ccccc32)cc1C (stereo unspecified) | < 0.4
44 | CCCn1cnc2cc(NC(=O)c3cccs3)ccc21 | > 42.8

Row | SMILES | solubility kinetic [µg/mL]
45 | COc1ccccc1C1CCN(Cc2ccccc2)CC1 | 31.1 (≈ 111 µM)
46 | COC(=O)C1=C(C)N(C)C(=O)NC1c1c(O)ccc2ccccc12 (stereo unspecified) | > 49
47 | COc1ccc2nc(Cl)cc(Cl)c2c1 | 0.9 (≈ 3.95 µM)
48 | O=C(Cc1ccccc1[N+](=O)[O-])Nc1ccc2c(c1)OCO2 | 14.6 (≈ 48.6 µM)
49 | CCC1(CC)Cc2ccccc2C(=O)N1 | > 30.5
50 | COc1cccc(NC(=O)c2cncs2)c1 | 32.9 (≈ 140 µM)
51 | CCN(CC)CC(C)OC(=O)c1ccccc1Cl (stereo unspecified) | 37.9 (≈ 140 µM)
52 | Cc1ccccc1Cn1c(=O)n(C)c(=O)c2sccc21 | 5.9 (≈ 20.6 µM)
53 | CCOC(=O)C1=C(O)C(=O)N(c2ccccc2)C1c1cccc([N+](=O)[O-])c1 (stereo unspecified) | 52 (≈ 141 µM)
54 | CCc1c(C#N)sc(C(N)=O)c1CC | > 31.2
55 | CN1CCCN(C(=O)CNC(=O)c2ccccc2Br)CC1 | > 53.1
56 | COc1cc([N+](=O)[O-])cc2sc(NC(C)=O)nc12 | 2.7 (≈ 10.1 µM)
57 | Cc1ccc(F)cc1NC(=O)CN1CCN(c2ccccn2)CC1 | > 49.3
58 | CC(N=Cc1c(O)n(C2CC2)c(=S)[nH]c1=O)c1ccccc1 (stereo unspecified) | 2.6 (≈ 8.24 µM)
59 | COC(=O)c1cn(CC(=O)Nc2ccccc2C)c2ccccc12 | 0.4 (≈ 1.24 µM)
60 | O=[N+]([O-])c1ccc(Cl)c(CN2CCCCCC2)c1 | 13.8 (≈ 51.3 µM)
61 | CCc1ccc2c(c1)C(O)(CC(=O)c1cccs1)C(=O)N2 (stereo unspecified) | > 45.2
62 | COc1ccc(Cl)cc1S(=O)(=O)n1ccnc1 | > 40.9
63 | O=C(NC1CCN(C(=O)c2cccc([N+](=O)[O-])c2)CC1)c1ccccc1 | > 53
64 | CCN(CC)CC(O)COC(c1ccccc1)c1ccccc1 (stereo unspecified) | 41.8 (≈ 133 µM)
65 | CC(=O)Nc1ccc2c(c1)ncn2-c1ccccc1 | > 37.7
66 | CCC(C(=O)NC1CC(C)(C)NC(C)(C)C1)c1ccccc1 (stereo unspecified) | > 45.4

Row | SMILES | solubility kinetic [µg/mL]
67 | COc1ccccc1-c1cn(-c2ccccc2)c(=S)[nH]1 | 3.8 (≈ 13.5 µM)
68 | NC(=O)c1ccsc1NC(=O)c1ccc([N+](=O)[O-])o1 | 20.5 (≈ 72.9 µM)
69 | CCON1C(=O)C(C)(C)N(OCC)C(=O)C1(C)C | > 38.7
70 | COc1ccccc1NC(=O)CNC(=O)CC12CC3CC(CC(C3)C1)C2 | 43.1 (≈ 121 µM)
71 | Cc1nc(NC(=O)CCN2C(=O)C3CC=CCC3C2=O)sc1C (stereo unspecified) | > 50
72 | O=C(Nc1cccnc1)c1cccc(S(=O)(=O)N2CCCC2)c1 | > 49.7
73 | Nc1c(Cl)ncnc1NCc1cccnc1 | > 35.4
74 | Cc1cc(/C=C2/NC(=O)NC2=O)c(C)n1-c1ccncc1 | > 42.3
75 | Cc1cc(C)c(NC(=O)COC(=O)C23CC4CC(CC(O)(C4)C2)C3)c(Cl)c1 | > 58.8
76 | CC(C)NC(=O)c1cc(-c2ccc3c(c2)OCO3)on1 | 17.9 (≈ 65.3 µM)
77 | O=c1cc(-c2ccccc2)nc(SCc2ccccc2F)[nH]1 | < 0.3
78 | COc1ccc(Nc2oc(-c3ccc(F)cc3)nc2C#N)cc1 | < 0.2
79 | C=CCOc1ccccc1NC(=O)CN1C(=O)CNC1=O | > 43.4
80 | Cc1occc1C(=O)NCc1nc(-c2ccccc2)no1 | > 42.5
81 | Cc1ccc(S(=O)(=O)N2CCOCC2)cc1C(=O)OCC(=O)c1c(N)n(C)c(=O)n(C)c1=O | 38.9 (≈ 81 µM)
82 | COc1ccc(NC(C)=O)cc1NC(=O)c1ccc(Cl)cc1 | 17.2 (≈ 54 µM)
83 | COc1c2c(nc3occc13)C(CC=C(C)C)(OC)C(=O)C=C2 (stereo unspecified) | > 47
84 | S=C(NCC1CCCO1)Nc1cccc(Cl)c1 (stereo unspecified) | > 40.6
85 | NS(=O)(=O)c1ccc(CCNC(=O)c2ccc3ccccc3n2)cc1 | 10.6 (≈ 29.8 µM)
86 | O=C(CSc1nc(-c2ccccc2)cs1)NCCCN1CCCC1=O | > 56.3
